Experimental data as given in ChEMBL document CHEMBL3621131, “Current developments of coumarin-based anti-cancer agents in medicinal chemistry” (Eur J Med Chem, 2015).
Values after ≈ are worked out from the molar mass of the structure shown.

Assays:
MDA-MB-231 [1] = experiment: Cytotoxicity against human MDA-MB-231 cells assessed as cell viability by MTT assay; format: functional, cell-based
SK-N-MC = experiment: Cytotoxicity against human SK-N-MC cells as cell viability by MTT assay; format: functional, cell-based
MCF7 [2] = experiment: Antitumor activity against human MCF7 cells assessed as cell viability by MTT assay; format: functional, cell-based
MCF7 [3] = experiment: Cytotoxicity against human MCF7 cells assessed as cell viability incubated for 72 hrs by SRB assay; format: functional, cell-based; details: MCF7, 72 h
HCT-15 = experiment: Cytotoxicity against human HCT15 cells assessed as cell viability incubated for 72 hrs by SRB assay; format: functional, cell-based; details: HCT-15, 72 h
A549 = experiment: Antitumor activity against human A549 cells assessed as cell viability incubated for 72 hrs by MTT assay; format: functional, cell-based; details: A549, 72 h
K562 [4] = experiment: Antitumor activity against human K562 cells assessed as cell viability by MTT assay; format: functional, cell-based
DU-145 [5] = experiment: Antiproliferative activity against human DU145 cells assessed as growth inhibition; format: functional
[6] = Antiproliferative activity against human BT20 cells assessed as growth inhibition; format: functional; details: BT-20
[7] = Antiproliferative activity against human DLD1 cells assessed as growth inhibition; format: functional; details: DLD-1
NCI-H157 = experiment: Antiproliferative activity against human NCI-H157 cells assessed as growth inhibition; format: functional
K562 [8] = experiment: Antiproliferative activity against human K562 cells assessed as growth inhibition; format: functional
HepG2 [9] = experiment: Cytotoxicity against human HepG2 cells assessed as cell viability by MTT assay; format: functional, cell-based
NCI-H460 = experiment: Antiproliferative activity against human NCI-H460 cells assessed as growth inhibition; format: functional, cell-based
MCF7 [10] = experiment: Antiproliferative activity against human MCF7 cells; format: functional, cell-based
[11] = target: T1, M-phase inducer phosphatase 2 (Homo sapiens, UniProt P30305); experiment: Inhibition of human CDC25B phosphatase
T1 sequence (P30305 whole entry): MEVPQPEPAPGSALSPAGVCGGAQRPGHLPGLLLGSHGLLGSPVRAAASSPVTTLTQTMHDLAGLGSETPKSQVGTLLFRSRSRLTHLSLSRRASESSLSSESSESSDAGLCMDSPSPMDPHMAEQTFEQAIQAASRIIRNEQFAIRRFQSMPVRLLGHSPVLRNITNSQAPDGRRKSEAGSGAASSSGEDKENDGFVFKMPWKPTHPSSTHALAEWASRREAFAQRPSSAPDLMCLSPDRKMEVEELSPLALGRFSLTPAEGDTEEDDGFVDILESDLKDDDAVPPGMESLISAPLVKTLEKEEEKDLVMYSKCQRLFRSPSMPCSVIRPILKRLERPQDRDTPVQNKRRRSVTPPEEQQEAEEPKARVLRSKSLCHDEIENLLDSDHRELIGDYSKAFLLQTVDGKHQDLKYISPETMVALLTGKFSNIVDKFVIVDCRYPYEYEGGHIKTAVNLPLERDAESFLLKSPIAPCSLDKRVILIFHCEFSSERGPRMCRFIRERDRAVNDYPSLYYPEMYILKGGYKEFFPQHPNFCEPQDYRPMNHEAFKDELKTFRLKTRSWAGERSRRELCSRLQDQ

MCF7 [12] = experiment: Antiproliferative activity against human MCF7 cells assessed as growth inhibition; format: functional, cell-based
MDA-MB-231 [13] = experiment: Antiproliferative activity against human MDA-MB-231 cells assessed as growth inhibition; format: functional, cell-based
[14] = Antiproliferative activity against human hTERT-HME1 cells assessed as growth inhibition; format: functional, cell-based
[15] = target: T2, M-phase inducer phosphatase 3 (Homo sapiens, UniProt P30307); experiment: Inhibition of human CDC25C phosphatase
T2 sequence (P30307 whole entry): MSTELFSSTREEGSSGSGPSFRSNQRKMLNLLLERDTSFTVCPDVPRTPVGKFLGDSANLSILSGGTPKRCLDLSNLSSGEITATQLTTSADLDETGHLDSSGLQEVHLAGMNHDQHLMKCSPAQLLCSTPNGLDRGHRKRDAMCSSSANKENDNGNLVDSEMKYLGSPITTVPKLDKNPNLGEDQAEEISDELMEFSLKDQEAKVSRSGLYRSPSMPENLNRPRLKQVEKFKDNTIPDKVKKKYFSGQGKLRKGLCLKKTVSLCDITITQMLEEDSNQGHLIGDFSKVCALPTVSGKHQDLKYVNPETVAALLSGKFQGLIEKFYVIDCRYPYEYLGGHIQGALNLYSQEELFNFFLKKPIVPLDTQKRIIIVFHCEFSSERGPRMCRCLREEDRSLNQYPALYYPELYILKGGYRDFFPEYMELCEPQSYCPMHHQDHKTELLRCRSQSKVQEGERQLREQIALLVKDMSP

[16] = target: T3, M-phase inducer phosphatase 1 (Homo sapiens, UniProt P30304); experiment: Inhibition of human CDC25A phosphatase
T3 sequence (P30304 whole entry): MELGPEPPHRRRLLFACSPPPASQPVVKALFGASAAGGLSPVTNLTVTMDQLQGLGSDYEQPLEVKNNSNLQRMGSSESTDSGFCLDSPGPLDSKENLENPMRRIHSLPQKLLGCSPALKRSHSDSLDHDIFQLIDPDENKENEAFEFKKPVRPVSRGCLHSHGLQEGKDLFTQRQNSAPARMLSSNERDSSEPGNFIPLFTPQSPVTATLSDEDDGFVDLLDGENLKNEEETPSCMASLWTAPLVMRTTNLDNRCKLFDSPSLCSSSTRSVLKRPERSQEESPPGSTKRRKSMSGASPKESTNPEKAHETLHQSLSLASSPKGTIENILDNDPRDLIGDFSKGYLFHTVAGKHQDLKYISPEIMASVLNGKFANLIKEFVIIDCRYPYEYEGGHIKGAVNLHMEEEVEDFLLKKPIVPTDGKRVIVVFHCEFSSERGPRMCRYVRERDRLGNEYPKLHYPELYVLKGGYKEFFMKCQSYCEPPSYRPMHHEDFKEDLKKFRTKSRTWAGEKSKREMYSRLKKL

HepG2 [17] = experiment: Cytotoxicity against human HepG2 cells assessed as cell viability incubated for 72 hrs by SRB assay; format: functional, cell-based; details: HepG2, 72 h
KB = experiment: Antiproliferative activity against human KB cells assessed as growth inhibition; format: functional, cell-based
DU-145 [18] = experiment: Antiproliferative activity against human DU145 cells assessed as growth inhibition by tryphan blue exclusion method; format: functional

O=c1oc2ccccc2c2c1C(c1cc(Br)ccc1O)SCCN2 (stereo not drawn) gave an IC50 (MDA-MB-231 [1]) of 3.75 µg/mL (≈ 9.28 µM), an IC50 (SK-N-MC) of 3.75 µg/mL (≈ 9.28 µM) and an IC50 (MCF7 [2]) of 3.75 µg/mL.

O=C(/C=C1\c2c(c3ccccc3oc2=O)OC1(c1ccccc1)N1CCCC1)c1ccccc1 (stereo not drawn) gave an IC50 (MCF7 [3]) of 8 µM and an IC50 (HCT-15) of 8 µM.

For COc1cccc(C2c3cc(C)ccc3Nc3c2c(=O)oc2ccccc32)c1 (stereo not drawn), the IC50 (A549) was 50 nM.

In the case of CCc1nc([N+](=O)[O-])c(N2CCN(/C(=N/Nc3ccc4c(C)cc(=O)oc4c3)C(C)=O)CC2)n1Cc1ccccc1, the IC50 (K562 [4]) is reported as 9.3 µM and the IC50 (MCF7 [2]) is reported as 20.2 µM.

O=c1oc2c(Br)cccc2cc1S(=O)(=O)Nc1ccc(Br)cc1 showed a GI50 (DU-145 [5]) of 12 µM, a GI50 [6] of 12 µM and a GI50 [7] of 12 µM. For the same molecule, the GI50 (NCI-H157) was 12 µM and the GI50 (K562 [8]) was 12 µM.

In the case of COc1ccc(-c2csc(-n3nc(C)cc3-c3cc4cc(Cl)ccc4oc3=O)n2)cc1, the IC50 (HepG2 [9]) is reported as no more than 3.25 µM.

In the case of C/C(=N/NC(=O)c1cc2ccccc2oc1=O)c1cccnc1, the IC50 (NCI-H460) is reported as 10 µM.

CCOC1(c2ccccc2)Oc2c(c(=O)oc3ccccc23)/C1=C\C(=O)c1ccccc1 (stereo not drawn) showed an IC50 (MCF7 [3]) of 8 µM and an IC50 (HCT-15) of 8 µM.

In the case of Cc1ccc(C(=O)c2cc(F)c(OCC(=O)NNC(=O)c3cc4ccccc4oc3=O)c(Cl)c2)cc1, the IC50 (MCF7 [10]) is reported as less than 10 µM.

Molecule Cc1ccc2c(c1)C(c1ccccc1)c1c(c3ccccc3oc1=O)N2 (stereo not drawn) has an IC50 (A549) of 140 nM and an IC50 (MCF7 [2]) of 0.52 µM.

COc1ccc2c(CSC3=CC(=O)c4ccccc4C3=O)cc(=O)oc2c1 gave an IC50 [11] of no more than 9 µM, an IC50 (MCF7 [12]) of no more than 11 µM and an IC50 (MDA-MB-231 [13]) of no more than 11 µM. For the same molecule, the IC50 [14] was 18 µM, the IC50 [15] was no more than 9 µM and the IC50 [16] was no more than 9 µM.

Work on Cc1cc(-c2cc3cc(Cl)ccc3oc2=O)n(-c2nc(-c3ccc(Cl)cc3)cs2)n1 yielded an IC50 (HepG2 [9]) of no more than 3.25 µM.

With Cc1cc(C(=O)c2ccc(Cl)cc2Cl)ccc1OCC(=O)NNC(=O)c1cc2ccccc2oc1=O the IC50 (MCF7 [10]) was less than 10 µM.

Cc1cc(C(=O)c2ccccc2Br)ccc1OCC(=O)NNC(=O)c1cc2ccccc2oc1=O showed an IC50 (MCF7 [10]) of less than 10 µM.

CC1=CP(C(c2ccccc2)(c2ccccc2)c2ccccc2)Oc2c1c(=O)oc1ccccc21 (stereo not drawn) showed an IC50 (HepG2 [17]) of no more than 3.89 µg/mL and an IC50 (MCF7 [3]) of no more than 3.89 µg/mL.

In the case of COc1cc(OC)cc(-c2cc3ccc(OC(C)=O)c(OC(C)=O)c3oc2=O)c1, the IC50 (KB) is reported as 5.18 µM.

With NCCCCCCCCNC(=O)c1c(O)c2ccccc2oc1=O the GI50 (DU-145 [18]) was less than 10 µM.
